# From PMC7229161 (Scientific Reports, 2020)
# Entries after “also recorded” stand apart in the source; their conditions may differ.
# Key:
# [1] = tested on: 3XHA-cTRPV1-A578K; type: cell-based, chicken (Gallus gallus)
# [2] = biological target: rTRPV1 (Rattus norvegicus, UniProt O35433); type: cell-based
# [3] = tested on: 3XHA-cTRPV1-A578Q; type: cell-based, chicken (Gallus gallus)
# [4] = tested on: 3XHA-cTRPV1-A578P; type: cell-based, chicken (Gallus gallus)
# [5] = biological target: cTRPV1-A578E (Gallus gallus, UniProt Q8QFN9, A578E); experiment: cell-based; design: species or system chicken (Gallus gallus)
# Sequence of cTRPV1-A578E (Q8QFN9 1-843 A578E): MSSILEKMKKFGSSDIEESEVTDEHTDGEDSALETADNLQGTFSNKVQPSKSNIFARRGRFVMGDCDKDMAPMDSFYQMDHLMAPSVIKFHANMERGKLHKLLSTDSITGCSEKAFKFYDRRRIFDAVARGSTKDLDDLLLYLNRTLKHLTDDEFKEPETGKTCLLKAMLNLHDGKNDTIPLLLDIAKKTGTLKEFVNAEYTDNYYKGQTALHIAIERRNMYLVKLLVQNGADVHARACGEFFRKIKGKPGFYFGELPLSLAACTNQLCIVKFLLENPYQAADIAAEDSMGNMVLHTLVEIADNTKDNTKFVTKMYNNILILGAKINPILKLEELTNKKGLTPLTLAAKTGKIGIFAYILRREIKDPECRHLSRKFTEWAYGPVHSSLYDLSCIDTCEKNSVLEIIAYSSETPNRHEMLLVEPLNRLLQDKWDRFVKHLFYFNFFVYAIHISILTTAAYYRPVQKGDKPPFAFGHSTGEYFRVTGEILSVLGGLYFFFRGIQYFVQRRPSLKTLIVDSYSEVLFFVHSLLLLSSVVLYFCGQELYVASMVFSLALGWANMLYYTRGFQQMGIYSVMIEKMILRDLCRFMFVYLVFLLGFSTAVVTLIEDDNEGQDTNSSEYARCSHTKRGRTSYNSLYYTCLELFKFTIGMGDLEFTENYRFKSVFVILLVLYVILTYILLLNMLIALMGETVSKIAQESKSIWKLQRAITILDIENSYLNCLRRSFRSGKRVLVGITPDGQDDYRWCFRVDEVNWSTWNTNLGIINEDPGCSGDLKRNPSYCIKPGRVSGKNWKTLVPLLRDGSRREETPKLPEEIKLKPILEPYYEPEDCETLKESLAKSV
# [6] = biological target: cTRPV1 (Gallus gallus, UniProt Q8QFN9); experiment: cell-based; type: cell-based, chicken (Gallus gallus)
# Sequence of cTRPV1 (Q8QFN9 1-843): as the sequence (Q8QFN9 1-843 A578E) above, with E578A counted along it
# [7] = biological target: T1, rTRPV1-E570Q (Rattus norvegicus, UniProt O35433, E570Q); type: cell-based
# T1 construct: expressed in transfected cells; host or cells: HEK293T
# T1 sequence (O35433 whole entry E570Q): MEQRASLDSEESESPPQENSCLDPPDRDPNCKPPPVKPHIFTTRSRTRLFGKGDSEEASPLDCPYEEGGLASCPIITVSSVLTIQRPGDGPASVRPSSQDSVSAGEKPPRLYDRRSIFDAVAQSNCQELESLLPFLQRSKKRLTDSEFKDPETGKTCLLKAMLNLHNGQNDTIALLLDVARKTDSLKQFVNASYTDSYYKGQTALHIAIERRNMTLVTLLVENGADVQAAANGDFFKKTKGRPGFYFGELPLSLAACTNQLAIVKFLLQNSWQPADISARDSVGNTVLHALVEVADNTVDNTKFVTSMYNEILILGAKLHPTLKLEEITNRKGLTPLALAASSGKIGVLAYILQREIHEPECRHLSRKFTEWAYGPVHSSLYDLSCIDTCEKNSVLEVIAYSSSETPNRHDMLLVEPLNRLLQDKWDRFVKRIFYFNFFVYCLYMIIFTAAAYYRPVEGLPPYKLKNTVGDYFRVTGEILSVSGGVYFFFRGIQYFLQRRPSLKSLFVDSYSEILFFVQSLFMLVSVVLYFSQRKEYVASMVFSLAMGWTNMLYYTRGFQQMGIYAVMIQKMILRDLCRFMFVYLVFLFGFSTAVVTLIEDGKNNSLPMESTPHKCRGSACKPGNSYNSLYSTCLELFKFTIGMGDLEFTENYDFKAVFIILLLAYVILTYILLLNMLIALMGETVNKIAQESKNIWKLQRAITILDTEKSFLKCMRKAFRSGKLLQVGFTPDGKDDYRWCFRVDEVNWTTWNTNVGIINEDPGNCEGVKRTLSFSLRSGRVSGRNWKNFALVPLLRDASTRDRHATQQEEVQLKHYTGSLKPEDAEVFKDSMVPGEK
# [8] = biological target: T2, rTRPV1-E570P (Rattus norvegicus, UniProt O35433, E570P); type: cell-based
# T2 construct: expressed in transfected cells; host or cells: HEK293T
# T2 sequence (O35433 whole entry E570P): as the sequence (O35433 whole entry E570Q) above, with Q570P counted along it
# [9] = biological target: T3, rTRPV1-E570K (Rattus norvegicus, UniProt O35433, E570K); type: cell-based
# T3 construct: expressed in transfected cells; host or cells: HEK293T
# T3 sequence (O35433 whole entry E570K): as the sequence (O35433 whole entry E570Q) above, with Q570K counted along it
# [10] = tested on: Ch15 rat-chicken TRPV1 chimera (rat C-terminus, N687-K838); type: cell-based
# [11] = tested on: Ch6 rat-chicken TRPV1 chimera (rat N-terminus, M1-R428); type: cell-based
# [12] = biological target: T4, rTRPV1-E570A (Rattus norvegicus, UniProt O35433, E570A); type: cell-based
# T4 construct: expressed in transfected cells; host or cells: HEK293T
# T4 sequence (O35433 whole entry E570A): as the sequence (O35433 whole entry E570Q) above, with Q570A counted along it
# Sequence of rTRPV1 (O35433 whole entry): as the sequence (O35433 whole entry E570Q) above, with Q570E counted along it
compound,measurement,setting,value
COc1cc(CCC(C)=O)ccc1O [zingerone],zingerone-induced activation,[1],did not activate
same,Zingerone-induced activity relative to capsaicin,[2],35.9 ± 5.0%
same,zingerone-induced activation,[2],activated rTRPV1
same,zingerone-induced activation,[3],did not activate
same,zingerone-induced activation,[4],did not activate
same,zingerone-induced activation,[5],did not activate
ruthenium red,block of cocktail-elicited ion flow,[6],sufficient to block most ions
same,block of cocktail-elicited extracellular Ca2+ entry,[2],could be blocked
"CNCCOc1ccc(CNC(=O)CCCC/C=C/C(C)C)cc1OC [Cap-EMA, O-(N-methylaminoethyl) capsaicin]",capsaicin analog-induced activation,[1],slightly activated
same,capsaicin analog-induced activation,[2],strong response
COc1cc(CNC(=O)CCCC/C=C/C(C)C)ccc1O [capsaicin],vanilloid responsiveness (30 μM capsaicin-induced activation normalized to cocktail-induced maximum channel opening),[1],greatest capsaicin sensitivity
same,EC50,[6],> 30 µM
same,channel activation (Ca2+ signal),[6],the response was relatively weak for cTRPV1; also recorded: limited response
same,responsiveness to 300 nM capsaicin normalized to protein expression level,[7],"exhibited responsiveness to 300 nM capsaicin, albeit much weaker than wildtype"
same,channel activation (Ca2+ signal),[2],activated rTRPV1
same,responsiveness to 300 nM capsaicin normalized to protein expression level,[8],reduced capsaicin sensitivity
same,vanilloid responsiveness (30 μM capsaicin-induced activation normalized to cocktail-induced maximum channel opening),[3],greatest capsaicin sensitivity
same,responsiveness to 300 nM capsaicin normalized to protein expression level,[9],"exhibited responsiveness to 300 nM capsaicin, albeit much weaker than wildtype"
same,vanilloid responsiveness (30 μM capsaicin-induced activation normalized to cocktail-induced maximum channel opening),[4],greatest capsaicin sensitivity
same,capsaicin sensitivity of chimera,[10],no capsaicin sensitivity
same,capsaicin sensitivity of chimera vs cTRPV1,[11],limited improvement in capsaicin sensitivity
same,capsaicin-induced responses vs wildtype rTRPV1,[12],drastically decreased
same,EC50,[5],7.2 ± 9.4 µM
same,"increase of response to 100 μM capsaicin, A578E mutant vs wildtype cTRPV1",[5],5 fold
same,vanilloid responsiveness (30 μM capsaicin-induced activation normalized to cocktail-induced maximum channel opening),[5],greatest capsaicin sensitivity
"COc1cc(CNC(=O)CCCC/C=C/C(C)C)ccc1OCCN [Cap-EA, O-aminoethyl capsaicin]",capsaicin analog-induced activation,[1],partially activated
same,capsaicin analog-induced activation,[2],strong response
same,capsaicin analog-induced activation,[5],successfully activated; also recorded: strongly activated
